Experimental data reported in patent US10219516B2, “Molecules having pesticidal utility, and intermediates, compositions, and processes, related thereto” (priority 2015, dated 2019).
Read-outs that look alike come from different tables or passages of the source.

How the values were obtained:
Type in all cases: in vivo
[1] = system: Beet Armyworm (Spodoptera exigua, LAPHEG); experiment: Bioassay on Beet Armyworm (BAW), 128-well diet tray assay
Summary of the method: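 Second-instar larvae, one to five per well, placed on artificial diet surface-treated with 50 μg/cm^2 compound applied in 90:10 acetone-water and dried. Held 5–7 days at 25° C., 14:10 light-dark. Percent mortality recorded per well and averaged over eight wells.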

[2] = system: Yellow Fever Mosquito (Aedes aegypti, AEDSAE); experiment: Bioassay on Yellow Fever Mosquito (YFM), 96-well plate larval assay; details: for YFM (Biological Results, rating): Species YFM (Yellow Fever Mosquito); for YFM rating: Yellow Fever Mosquito, 96-well plate larval assay
Summary of the method: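 Aedes aegypti larvae (about 1 day old) in liver-powder water were added to plates dispensed from DMSO master plates (4000 ppm stock) diluted with 90:10 water/acetone; six replicate plates per master. Lidded plates were held at room temperature for 3 days, then each well was scored for mortality.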

[3] = system: Cabbage Looper (Trichoplusia ni, TRIPNI); experiment: Bioassay on Cabbage Looper (CL), 128-well diet tray assay; details: Trichoplusia ni
Summary of the method: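 Second-instar larvae, one to five per well, were placed on artificial diet surface-treated with 50 μg/cm^2 test molecule applied in 90:10 acetone-water and dried, eight wells per molecule. Trays were covered, vented and held at 25° C., 14:10 light-dark for five to seven days; percent mortality per well was averaged.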

[4] = Species BAW (Beet Armyworm), read-out: BAW (Biological Results, rating)
[5] = Species CL (Cabbage Looper), read-out: CL (Biological Results, rating)
[6] = Beet Armyworm, 128-well diet tray assay, read-out: BAW rating
[7] = Cabbage Looper, 128-well diet tray assay, read-out: CL rating

Structure (SMILES): Nc1c(F)ccc(NC(=O)c2cc(NC(=O)[C@H]3[C@H](c4cc(Cl)c(Cl)c(Cl)c4)C3(Cl)Cl)ccc2Cl)c1F [F315, N-(3-Amino-2,4-difluorophenyl)-2-chloro-5-((1R,3R)-2,2-dichloro-3-(3,4,5-trichlorophenyl)cyclopropane-1-carboxamido)benzamide]
- pest or weed control at 50 µg/cm2 [1, 4]: 50 to 100%
- YFM (Biological Results, rating) [2]: A (80-100)
- pest or weed control at 50 µg/cm2 [3, 5]: 50 to 100%

Structure (SMILES): O=C(Nc1ncc(F)cc1F)c1cc(NC(=O)[C@H]2[C@H](c3ccc(F)c(Cl)c3)C2(Cl)Cl)ccc1Cl [F316, 2-Chloro-5-((1R,3R)-2,2-dichloro-3-(3-chloro-4-fluorophenyl)cyclopropane-1-carboxamido)-N-(3,5-difluoropyridin-2-yl)benzamide]
- pest or weed control at 50 µg/cm2 [1, 4]: 50 to 100%
- YFM (Biological Results, rating) [2]: A (80-100)
- pest or weed control at 50 µg/cm2 [3, 5]: 50 to 100%

Structure (SMILES): Nc1c(F)ccc(NC(=O)c2cc(NC(=O)[C@H]3[C@H](c4ccc(F)c(Cl)c4)C3(Cl)Cl)ccc2Cl)c1F [F317, N-(3-Amino-2,4-difluorophenyl)-2-chloro-5-((1R,3R)-2,2-dichloro-3-(3-chloro-4-fluorophenyl)cyclopropane-1-carboxamido)benzamide]
- pest or weed control at 50 µg/cm2 [1, 4]: 50 to 100%
- YFM (Biological Results, rating) [2]: A (80-100)
- pest or weed control at 50 µg/cm2 [3, 5]: 50 to 100%

Structure (SMILES): Nc1cc(C(F)(F)F)cc(NC(=O)c2cc(NC(=O)C3C(c4cc(Cl)cc(Cl)c4)C3(Cl)Cl)ccc2Cl)n1 (stereo not drawn) [F328, N-(6-Amino-4-(trifluoromethyl)pyridin-2-yl-2-chloro-5-(trans-2,2-dichloro-3-(3,5-dichlorophenyl)cyclopropane-1-carboxamido)benzamide]
- pest or weed control at 50 µg/cm2 [1, 4]: 50 to 100%
- YFM (Biological Results, rating) [2]: A (80-100)
- pest or weed control at 50 µg/cm2 [3, 5]: 50 to 100%

Structure (SMILES): Nc1cc(NC(=O)c2cc(NC(=O)[C@H]3[C@H](c4cc(Cl)cc(Cl)c4)C3(Cl)Cl)ccc2Cl)c(F)cc1F [F353, N-(5-Amino-2,4-difluorophenyl)-2-chloro-5-((1R,3R)-2,2-dichloro-3-(3,5-dichlorophenyl)cyclopropane-1-carboxamido)benzamide]
- pest or weed control at 50 µg/cm2 [1, 4]: 50 to 100%
- YFM (Biological Results, rating) [2]: A (80-100)
- pest or weed control at 50 µg/cm2 [3, 5]: 50 to 100%

Structure (SMILES): Nc1cc(NC(=O)c2cc(NC(=O)[C@H]3[C@H](c4ccc(Cl)c(Cl)c4)C3(Cl)Cl)ccc2Cl)c(F)cc1F [F354, N-(5-Amino-2,4-difluorophenyl)-2-chloro-5-((1R,3R)-2,2-dichloro-3-(3,4-dichlorophenyl)cyclopropane-1-carboxamido)benzamide]
- pest or weed control at 50 µg/cm2 [1, 4]: 50 to 100%
- YFM (Biological Results, rating) [2]: A (80-100)
- pest or weed control at 50 µg/cm2 [3, 5]: 50 to 100%

Structure (SMILES): O=C(Nc1cncc([N+](=O)[O-])c1)c1cc(NC(=O)[C@H]2[C@H](c3cc(Cl)cc(Cl)c3)C2(Cl)Cl)ccc1Cl [F358, 2-Chloro-5-((1R,3R)-2,2-dichloro-3-(3,5-dichlorophenyl)cyclopropane-1-carboxamido)-N-(5-nitropyridin-3-yl)benzamide]
- pest or weed control at 50 µg/cm2 [1, 4]: 50 to 100%
- YFM (Biological Results, rating) [2]: A (80-100)
- pest or weed control at 50 µg/cm2 [3, 5]: 50 to 100%

Structure (SMILES): O=C(Nc1cncc([N+](=O)[O-])c1)c1cc(NC(=O)[C@H]2[C@H](c3ccc(Cl)c(Cl)c3)C2(Cl)Cl)ccc1Cl [F359, 2-Chloro-5-((1R,3R)-2,2-dichloro-3-(3,4-dichlorophenyl)cyclopropane-1-carboxamido)-N-(5-nitropyridin-3-yl)benzamide]
- pest or weed control at 50 µg/cm2 [1, 4]: 50 to 100%
- YFM (Biological Results, rating) [2]: A (80-100)
- pest or weed control at 50 µg/cm2 [3, 5]: 50 to 100%

Structure (SMILES): Nc1c(F)cc(F)cc1NC(=O)c1cc(NC(=O)[C@H]2[C@H](c3cc(Cl)cc(Cl)c3)C2(Cl)Cl)ccc1Cl [F360, N-(2-Amino-3,5-difluorophenyl)-2-chloro-5-((1R,3R)-2,2-dichloro-3-(3,5-dichlorophenyl)cyclopropane-1-carboxamido)benzamide]
- pest or weed control at 50 µg/cm2 [1, 4]: 50 to 100%
- YFM (Biological Results, rating) [2]: A (80-100)
- pest or weed control at 50 µg/cm2 [3, 5]: 50 to 100%

Structure (SMILES): Nc1cncc(NC(=O)c2cc(NC(=O)[C@H]3[C@H](c4cc(Cl)cc(Cl)c4)C3(Cl)Cl)ccc2Cl)c1 [F362, N-(5-aminopyridin-3-yl)-2-chloro-5-((1R,3R)-2,2-dichloro-3-(3,5-dichlorophenyl)cyclopropane-1-carboxamido)benzamide]
- pest or weed control at 50 µg/cm2 [1, 4]: 50 to 100%
- YFM (Biological Results, rating) [2]: A (80-100)
- pest or weed control at 50 µg/cm2 [3, 5]: 50 to 100%

Structure (SMILES): Nc1cncc(NC(=O)c2cc(NC(=O)[C@H]3[C@H](c4ccc(Cl)c(Cl)c4)C3(Cl)Cl)ccc2Cl)c1 [F363, N-(5-Aminopyridin-3-yl)-2-chloro-5-((1R,3R)-2,2-dichloro-3-(3,4-dichlorophenyl)cyclopropane-1-carboxamido)benzamide]
- pest or weed control at 50 µg/cm2 [1, 4]: 50 to 100%
- YFM (Biological Results, rating) [2]: A (80-100)
- pest or weed control at 50 µg/cm2 [3, 5]: 50 to 100%

Structure (SMILES): O=C(Nc1ccnc(Cl)c1)c1cc(NC(=O)[C@H]2[C@H](c3cc(Cl)cc(Cl)c3)C2(Cl)Cl)ccc1Cl [F368, 2-Chloro-N-(2-chloropyridin-4-yl)-5-((1R,3R)-2,2-dichloro-3-(3,5-dichlorophenyl)cyclopropane-1-carboxamido)benzamide]
- pest or weed control at 50 µg/cm2 [1, 4]: 50 to 100%
- YFM (Biological Results, rating) [2]: A (80-100)
- pest or weed control at 50 µg/cm2 [3, 5]: 50 to 100%

Structure (SMILES): O=C(Nc1ccnc(Cl)c1)c1cc(NC(=O)[C@H]2[C@H](c3ccc(Cl)c(Cl)c3)C2(Cl)Cl)ccc1Cl [F369, 2-Chloro-N-(2-chloropyridin-4-yl)-5-((1R,3R)-2,2-dichloro-3-(3,4-dichlorophenyl)cyclopropane-1-carboxamido)benzamide]
- pest or weed control at 50 µg/cm2 [1, 4]: 50 to 100%
- YFM (Biological Results, rating) [2]: A (80-100)
- pest or weed control at 50 µg/cm2 [3, 5]: 50 to 100%

Structure (SMILES): Nc1c(F)cnc(NC(=O)c2cc(NC(=O)[C@H]3[C@H](c4cc(Cl)cc(Cl)c4)C3(Cl)Cl)ccc2Cl)c1F [F370, N-(4-Amino-3,5-difluoropyridin-2-yl)-2-chloro-5-((1R,3R)-2,2-dichloro-3-(3,5-dichlorophenyl)cyclopropane-1-carboxamido)benzamide]
- pest or weed control at 50 µg/cm2 [1, 4]: 50 to 100%
- YFM (Biological Results, rating) [2]: A (80-100)
- pest or weed control at 50 µg/cm2 [3, 5]: 50 to 100%

Structure (SMILES): Nc1c(F)cnc(NC(=O)c2cc(NC(=O)[C@H]3[C@H](c4ccc(Cl)c(Cl)c4)C3(Cl)Cl)ccc2Cl)c1F [F371, N-(4-Amino-3,5-difluoropyridin-2-yl)-2-chloro-5-((1R,3R)-2,2-dichloro-3-(3,4-dichlorophenyl)cyclopropane-1-carboxamido)benzamide]
- pest or weed control at 50 µg/cm2 [1, 4]: 50 to 100%
- YFM (Biological Results, rating) [2]: A (80-100)
- pest or weed control at 50 µg/cm2 [3, 5]: 50 to 100%

Structure (SMILES): Nc1c(F)cnc(NC(=O)c2cc(NC(=O)[C@H]3[C@H](c4cc(Cl)c(Cl)c(Cl)c4)C3(Cl)Cl)ccc2Cl)c1F [F372, N-(4-Amino-3,5-difluoropyridin-2-yl)-2-chloro-5-((1R,3R)-2,2-dichloro-3-(3,4,5-trichlorophenyl)cyclopropane-1-carboxamido)benzamide]
- pest or weed control at 50 µg/cm2 [1, 4]: 50 to 100%
- YFM (Biological Results, rating) [2]: A (80-100)
- pest or weed control at 50 µg/cm2 [3, 5]: 50 to 100%

Structure (SMILES): Nc1ccc(F)cc1NC(=O)c1cc(NC(=O)[C@H]2[C@H](c3cc(Cl)cc(Cl)c3)C2(Cl)Cl)ccc1Cl [F373, N-(2-Amino-5-fluorophenyl)-2-chloro-5-((1R,3R)-2,2-dichloro-3-(3,5-dichlorophenyl)cyclopropane-1-carboxamido)benzamide]
- pest or weed control at 50 µg/cm2 [1, 6]: 50 to 100%
- YFM rating [2]: A (80-100)
- pest or weed control at 50 µg/cm2 [3, 7]: 50 to 100%

Structure (SMILES): Nc1c(F)cc(F)cc1NC(=O)c1cc(NC(=O)[C@H]2[C@H](c3ccc(Cl)c(Cl)c3)C2(Cl)Cl)ccc1Cl [F377, N-(2-Amino-3,5-difluorophenyl)-2-chloro-5-((1R,3R)-2,2-dichloro-3-(3,4-dichlorophenyl)cyclopropane-1-carboxamido)benzamide]
- pest or weed control at 50 µg/cm2 [1, 6]: 50 to 100%
- YFM rating [2]: A (80-100)
- pest or weed control at 50 µg/cm2 [3, 7]: 50 to 100%

Structure (SMILES): Nc1c(F)cc(NC(=O)c2cc(NC(=O)[C@H]3[C@H](c4cc(Cl)cc(Cl)c4)C3(Cl)Cl)ccc2Cl)cc1F [F378, N-(4-Amino-3,5-difluorophenyl)-2-chloro-5-((1R,3R)-2,2-dichloro-3-(3,5-dichlorophenyl)cyclopropane-1-carboxamido)benzamide]
- pest or weed control at 50 µg/cm2 [1, 6]: 50 to 100%
- YFM rating [2]: B (More than 0-Less than 80)
- pest or weed control at 50 µg/cm2 [3, 7]: 50 to 100%

Structure (SMILES): Nc1c(F)cc(NC(=O)c2cc(NC(=O)[C@H]3[C@H](c4ccc(Cl)c(Cl)c4)C3(Cl)Cl)ccc2Cl)cc1F [F379, N-(4-Amino-3,5-difluorophenyl)-2-chloro-5-((1R,3R)-2,2-dichloro-3-(3,4-dichlorophenyl)cyclopropane-1-carboxamido)benzamide]
- pest or weed control at 50 µg/cm2 [1, 6]: 50 to 100%
- YFM rating [2]: A (80-100)
- pest or weed control at 50 µg/cm2 [3, 7]: 50 to 100%

Structure (SMILES): Nc1c(F)cc(NC(=O)c2cc(NC(=O)[C@H]3[C@H](c4cc(Cl)c(Cl)c(Cl)c4)C3(Cl)Cl)ccc2Cl)cc1F [F380, N-(4-Amino-3,5-difluorophenyl)-2-chloro-5-((1R,3R)-2,2-dichloro-3-(3,4,5-trichlorophenyl)cyclopropane-1-carboxamido)benzamide]
- pest or weed control at 50 µg/cm2 [1, 6]: 50 to 100%
- YFM rating [2]: A (80-100)
- pest or weed control at 50 µg/cm2 [3, 7]: 50 to 100%

Structure (SMILES): Nc1c(F)cc(NC(=O)c2cc(NC(=O)[C@H]3[C@H](c4ccc(F)c(Cl)c4)C3(Cl)Cl)ccc2Cl)cc1F [F381, N-(4-Amino-3,5-difluorophenyl)-2-chloro-5-((1R,3R)-2,2-dichloro-3-(3-chloro-4-fluorophenyl)cyclopropane-1-carboxamido)benzamide]
- pest or weed control at 50 µg/cm2 [1, 6]: 50 to 100%
- YFM rating [2]: A (80-100)
- pest or weed control at 50 µg/cm2 [3, 7]: 50 to 100%
